Reference: patent publication US7176281B2 (priority 2003, dated 2007)
Where a SMILES comes first, the peptide text is derived from it. Where no end group is shown, it is not given here.

What was measured:
sPLA2 [1] = assay: Inhibition of sPLA2 activity at fixed concentrations; type: biochemical
sPLA2 [2] = settings: known selective sPLA2 inhibitor; cited from earlier work
[3] = molecular target: T1, serum group IIA secretory phospholipase A2 (Homo sapiens, UniProt P14555); settings: patients with severe sepsis; cited from earlier work
T1 construct: host or cells: patients' serum
T1 sequence (P14555 21-144): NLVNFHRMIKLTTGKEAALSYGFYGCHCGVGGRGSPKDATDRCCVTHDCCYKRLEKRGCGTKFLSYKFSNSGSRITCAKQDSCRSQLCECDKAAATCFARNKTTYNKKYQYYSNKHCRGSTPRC

[4] = molecular target: snake venom PLA2 (crotoxin B) (Crotalus durissus terrificus, UniProt P0CAS2); assay: biochemical
Chain of snake venom PLA2 (crotoxin B) (P0CAS2 whole entry, looked up): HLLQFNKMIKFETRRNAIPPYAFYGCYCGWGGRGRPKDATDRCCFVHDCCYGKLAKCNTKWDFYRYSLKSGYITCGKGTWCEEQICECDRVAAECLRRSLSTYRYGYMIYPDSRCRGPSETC

[5] = molecular target: T2, arthritis synovial fluid (human type IIA sPLA2) (Homo sapiens, UniProt P14555); assay: PLA2 inhibition, E. coli membrane assay, arthritis synovial fluid sPLA2; type: biochemical; settings: read-out: IC50 (mean±SD; n=3)
T2 construct: arthritis synovial fluid (human type IIA sPLA2); from tissue; host or cells: human arthritis synovial fluid
T2 sequence (P14555 21-144): T1 sequence (P14555 21-144)

[6] = molecular target: T3, 100-kDa human recombinant cytosolic form of PLA2 (cPLA2) (Homo sapiens, UniProt P47712); assay: PLA2 inhibition, E. coli membrane assay, cPLA2; type: biochemical
T3 sequence (P47712 1-749): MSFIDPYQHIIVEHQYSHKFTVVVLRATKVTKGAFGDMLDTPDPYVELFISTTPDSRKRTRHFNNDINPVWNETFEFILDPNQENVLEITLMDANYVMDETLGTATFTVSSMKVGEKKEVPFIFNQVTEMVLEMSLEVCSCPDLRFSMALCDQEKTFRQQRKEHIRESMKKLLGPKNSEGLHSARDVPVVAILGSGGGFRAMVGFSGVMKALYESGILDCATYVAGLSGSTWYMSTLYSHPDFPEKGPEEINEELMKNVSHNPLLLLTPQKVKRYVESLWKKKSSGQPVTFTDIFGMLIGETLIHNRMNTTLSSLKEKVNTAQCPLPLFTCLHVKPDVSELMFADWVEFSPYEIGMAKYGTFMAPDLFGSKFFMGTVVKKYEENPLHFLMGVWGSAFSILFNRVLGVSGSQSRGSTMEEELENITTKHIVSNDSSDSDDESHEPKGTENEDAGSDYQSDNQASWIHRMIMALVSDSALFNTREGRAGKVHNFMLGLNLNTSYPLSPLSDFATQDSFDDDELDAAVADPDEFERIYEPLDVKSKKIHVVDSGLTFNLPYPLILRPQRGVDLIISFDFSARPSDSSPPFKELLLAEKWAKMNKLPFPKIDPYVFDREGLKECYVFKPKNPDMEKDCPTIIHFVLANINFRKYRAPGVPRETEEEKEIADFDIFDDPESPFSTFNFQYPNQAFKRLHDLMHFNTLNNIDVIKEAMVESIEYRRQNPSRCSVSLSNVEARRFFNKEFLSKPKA

[7] = molecular target: T4, Group IIA purified human synovial sPLA2 (Homo sapiens, UniProt P14555); assay: In vitro inhibition of purified human synovial sPLA2, 3H-labelled E. coli membranes; type: biochemical; settings: 3H-labelled E. coli membranes as substrate
T4 construct: purchased Cayman, USA
T4 sequence (P14555 21-144): T1 sequence (P14555 21-144)

[8] = system: mammalian (human and rat) type IIA sPLA2; type: binding
[9] = system: Tg197 transgenic mice (chronic inflammatory polyarthritis); assay: Tg197 transgenic mouse arthritis model, experiment 2 (4 weeks, time course); type: in vivo
Protocol: In experiment 2, mice were divided into 6 groups (A–F), and were injected i.p with 3 weekly doses (150 μg peptide in 50 μL DMSO per dose) of either the test peptide P-NT.II or the control peptide with the scrambled sequence for 4 consecutive weeks. Tg197 mice in Group B (n=18) were further divided into 4 sub-groups (B1, B2, B3, B4). At the end of 1st week, four Tg197 mice from Group B (sub-group B1) were sacrificed and both hind legs taken for histological processing and scorings. The remaining Tg197 mice from the other sub-groups B were continued with 3 regular doses of injections per week, and four Tg197 mice from each sub-group B2 and B3, were sacrificed at the end of 2nd and 3rd weeks, respectively. At the end of 4th week, all remaining Tg197 mice ([…]) were sacrificed for collection of joint specimens.
Disease monitoring was done by gross observations based on body weight measurements and arthritis scoring, which were done twice weekly after treatment until all the animals were sacrificed at 5th week in experiment 1, or at 4th week in experiment 2. Arthritis score (AS) was recorded on both ankle joints, and average scores as shown below were taken: • 0=no arthritis (normal appearance and flexion); • 0.5=onset of arthritis (mild joint swelling); • 1.0=mild arthritis (joint distortion); • 1.5=as above+finger deformation, less strength on flexion; • […]=moderate arthritis (severe swelling, joint deformation, no strength on flexion); • 2.5=as above+finger deformation in paws; • 3.0=heavy arthritis (ankylosis detected on flexion and severely impaired movement).
For histopathological scoring, both hind legs were dissected and fixed in 10% formaldehyde overnight, decalcified in citrate-buffered formic acid for 3 days at 4° C., and processed for light microscopy (LM). • Histopathological score (HS) was evaluated as follows: • 0=no detectable pathology, • 1=hyperplasia of the synovial membrane and presence of polymorphonuclear infiltrates • 2=pannus and fibrous tissue formation and focal subchondrial bone erosion • 3=articular cartilage destruction and bone erosion • 4=articular cartilage destruction and extensive bone erosion.
Transmission electron microscopy (TEM): Ankle joints dissected from the left hind leg of each mouse were split open longitudinally through the midline between the tibia and the talus, prefixed overnight with 2.5% glutaraldehyde in phosphate buffer, pH 7.4 (PB) and rinsed with PB. After fixing with 1% osmium tetroxide in PB for 2 h, they were dehydrated in a graded series of ethanol and processed into Araldite. Semi-thin sections (1.0μ) were cut and stained with methylene blue to observe the orientation and for histopathological scorings under the light microscope. Ultra-thin sections (80–90 nm) were then cut with an ultramicrotome (Riechert-Jung Ultracut E), mounted on copper grids, counterstained with uranyl acetate and lead citrate, and evaluated under electron microscope (CM120 Biotwin, FEI Company).
Anti-inflammatory activity of the candidate peptide P-NT.II was examined as a new treatment option for modulating rheumatoid arthritis (RA) in a transgenic animal model. To evaluate the potential effectiveness of the peptide as prophylaxis against RA, two separate experiments were performed in 4 week-old transgenic (Tg197) mice and non-transgenic wild-type (wt) mice. These transgenic mice (Tg197) express human tumor necrosis factor (TNFα), a cytokine which has been implicated in the pathogenesis of human RA.

serum sPLA2 = assay: Serum sPLA2 levels in Tg197 mice, E. coli membrane assay; type: in vivo, mouse; settings: 3–4 weeks post-treatment
Protocol: Serum of transgenic (Tg197) mice and non-transgenic wild type controls were measured for sPLA2 using an Escherichia coli (E. coli) membrane assay as described previously [Eur J Biochem 2002, 269:719–727]. In brief, [^3H] arachidonate-labeled E. coli membrane suspension (5.8 μCi/μmol, Perkin Elmer, USA) was used as substrate, and 25 mM CaCl2-100 mM Tris-HCl (pH 7.5) as assay buffer. The reaction mixture containing substrate (20 μl), and either purified human synovial sPLA2 standard (1–80 ng/ml, Cayman, USA) or serum (10 μl) in a final volume of 250 μl in assay buffer was incubated at 37° C. for 1 h, and the reaction terminated with 750 μl of chilled PBS containing 1% BSA. 500 μl aliquots of the supernatant were then taken to measure the amount of [^3H] arachidonate released from the E. coli membrane using liquid scintillation counting (Beckman LS 6500 Scintillation Counter). The amount of sPLA2 present in the serum was calculated from the standard curve, and is expressed as ng/ml±SEM.
FIG. 12 depicts time course of serum sPLA2 levels. Serum sPLA2 levels were measured with an E. coli membrane assay in blood samples collected from untreated, P-NT.I- and scrambled P-NT.II-treated Tg197 mice at weekly intervals. Values are the mean±SD (n=4/group). […]

human recombinant cPLA2 = molecular target: T5, human recombinant cPLA2 (Homo sapiens, UniProt P47712); type: binding
T5 sequence (P47712 1-749): T3 sequence (P47712 1-749)

β-bungarotoxin (Group I) = β-bungarotoxin (Group I) (Bungarus multicinctus, UniProt P00617)
crotoxin B (Group IIA) = crotoxin B (Group IIA) (Crotalus durissus terrificus, UniProt P0CAS2)
[10] = molecular target: bee (Apis mellifera) venom PLA2 (Group III) (Apis mellifera, UniProt P00630)

Molecule: CC(=O)O[C@@H]1C[C@@H]2[C@@]3(C)CCCC(C)(C)[C@@H]3CC[C@@]2(C)[C@@H]2CC=C(C=O)[C@H](C=O)[C@@]12C [12-epi-scalaradial]
- inhibition of sPLA2 activity (sPLA2 [1]; 10 μM): 75%
- inhibition of sPLA2 activity (sPLA2 [1]; 20 μM): 95%
- IC50 (sPLA2 [2]): 5.4 µM

Molecule: CCc1c(C(=O)C(N)=O)c2c(OCC(=O)O)cccc2n1Cc1ccccc1 [LY315920]
- serum group IIA secretory phospholipase A2 enzyme activity [3]: inhibit

Molecule: CC[C@H](C)[C@H](NC(=O)[C@H](Cc1ccc(O)cc1)NC(=O)[C@@H](NC(=O)CNC(=O)[C@H](CC(=O)O)NC(=O)[C@H](Cc1c[nH]c2ccccc12)NC(=O)[C@@H](NC(=O)[C@H](Cc1cnc[nH]1)NC(=O)[C@@H](NC(=O)[C@H](CC(=O)O)NC(=O)[C@@H](NC(=O)[C@H](CCCNC(=N)N)NC(=O)CNC(=O)[C@@H](N)CC(C)C)C(C)C)[C@@H](C)CC)C(C)C)C(C)C)C(=O)N[C@@H](CCCNC(=N)N)C(=O)NCC(=O)N[C@@H](CCCNC(=N)N)C(=O)O [P-NT.II] (H-LGRVDIHVWDGVYIRGR-OH)
- IC50 ([4]; IC50 (mean±SD; n=3)): 4.91 ± 2.47 µM
- IC50 ([4]; IC50 ranging): 3.9 to 4.9 µM
- IC50 [5]: 3.91 ± 1.67 µM
- IC50 ([6]; human recombinant cPLA2, read-out: IC50 (mean±SD; n=3)): 23.9 ± 2.39 µM
- IC50 [7]: 5.3 µM

Molecule: CC[C@H](C)[C@H](NC(=O)[C@H](CC(=O)O)NC(=O)[C@@H](NC(=O)[C@H](CCCNC(=N)N)NC(=O)[C@H](CCCNC(=N)N)NC(=O)[C@@H](N)Cc1ccc(O)cc1)C(C)C)C(=O)NCC(=O)N[C@@H](CC(C)C)C(=O)N[C@@H](CCCNC(=N)N)C(=O)N[C@H](C(=O)N[C@@H](Cc1c[nH]c2ccccc12)C(=O)N[C@@H](Cc1c[nH]cn1)C(=O)N[C@@H](CC(=O)O)C(=O)N[C@@H](CC(C)C)C(=O)NCC(=O)N[C@H](C(=O)NCC(=O)O)C(C)C)C(C)C [Scrambled P-NT.II, reference compound] (H-YRRVDIGLRVWHDLGVG-OH; N-terminus and C-terminus assumed)
- IC50 ([4]; IC50): > 250 µM
- inhibition of cPLA2 [6]: failed to inhibit
- inhibition of sPLA2 (sPLA2 [1]): failed to inhibit
- competition with labeled P-NT.II for binding to type IIA sPLA2 [8]: failed to block
- ultrastructural features of the articular chondrocytes (TEM) ([9]; 1–4 weeks post-treatment): more or less similar to those described for untreated Tg197 mice
- % of total at indicated HS scores, HS 2 ([9]; 4 wk treatment): 16.7%
- % of total at indicated HS scores, HS 3 ([9]; 4 wk treatment): 83.3%
- % of total at indicated HS scores, HS 4 ([9]; 4 wk treatment): 0%
- Mean HS ± SEM ([9]; 4 wk treatment): 3.25 ± 0.17
- circulating sPLA2 compared with untreated mice (serum sPLA2): not significantly different

Molecule: biotinylated-P-NT.II: P-NT.II labeled with biotin, 0.18 mol biotin bound to 1 mol of P-NT.II (LGRVDIHVWDGVYIRGR; also: labeled with biotin, 0.18 mol biotin per mol peptide, site not given here)
- ELISA reaction (human recombinant cPLA2): reacted positively
- binding to cPLA2 relative to sPLA2s (human recombinant cPLA2): relatively much weaker
- ELISA reaction (β-bungarotoxin (Group I)): reacted positively
- ELISA reaction (crotoxin B (Group IIA)): reacted positively
- ELISA reaction [10]: reacted positively
